Results: patent publication US20260116920A1, “HUMAN TRANSFERRIN RECEPTOR BINDING PEPTIDE” (PEPTIDREAM INC., priority 2021, published 2026)
Positions of bridges follow the written chain, without caps; N, C: chain ends. Non-standard residues stand in square brackets, D forms with d. Residues, ends and D or L forms follow the SMILES beside them. Trp(1-CH2COOH) = N[C@@H](Cc1cn(CC(=O)O)c2ccccc12)C(=O)O; NMePhe(3-Cl) = CN[C@@H](Cc1cccc(Cl)c1)C(=O)O; NMeY = CN[C@@H](Cc1ccc(O)cc1)C(=O)O; 3Pal = N[C@@H](Cc1cccnc1)C(=O)O; 4Pal = N[C@@H](Cc1ccncc1)C(=O)O; PEG4 = NCCOCCOCCOCCOCCC(=O)O

Biological target: T1, human transferrin receptor (hTfR) (Homo sapiens, UniProt P02786)
T1 construct: made in house
Experiment: Evaluation of molecular interaction between transferrin receptor (hTfR) and peptide using surface plasmon resonance (SPR)
Format: binding
Settings: surface plasmon resonance, binding to hTfR; KD class symbol; read-out: SPR (KD value)
Summary of the method: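 Binding kinetics of peptides to immobilized recombinant human TfR dimer were measured by SPR at 5–100 nM in a single-cycle format, with KD obtained from curve fitting.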

T1 sequence (P02786 89-760 limits assumed): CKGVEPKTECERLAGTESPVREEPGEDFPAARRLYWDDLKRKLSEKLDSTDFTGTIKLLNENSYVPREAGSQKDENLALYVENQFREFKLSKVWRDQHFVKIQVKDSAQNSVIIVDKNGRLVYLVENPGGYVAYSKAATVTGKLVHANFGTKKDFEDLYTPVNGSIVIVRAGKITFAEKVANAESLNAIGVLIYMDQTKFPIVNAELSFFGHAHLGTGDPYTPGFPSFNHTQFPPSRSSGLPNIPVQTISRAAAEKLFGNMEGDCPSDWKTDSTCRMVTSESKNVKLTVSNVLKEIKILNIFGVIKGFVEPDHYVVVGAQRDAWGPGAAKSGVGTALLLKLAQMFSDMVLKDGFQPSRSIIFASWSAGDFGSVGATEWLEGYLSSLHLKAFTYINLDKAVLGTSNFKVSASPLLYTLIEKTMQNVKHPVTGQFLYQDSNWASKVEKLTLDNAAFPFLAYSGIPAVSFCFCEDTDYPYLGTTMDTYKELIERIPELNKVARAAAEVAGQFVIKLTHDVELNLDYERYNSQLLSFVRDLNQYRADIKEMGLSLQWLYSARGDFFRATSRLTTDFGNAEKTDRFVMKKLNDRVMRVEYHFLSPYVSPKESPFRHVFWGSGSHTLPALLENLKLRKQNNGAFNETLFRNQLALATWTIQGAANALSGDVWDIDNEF

Row | Kd | SMILES
1 | 1 to 100 nM | CC[C@H](C)[C@@H]1NC(=O)[C@H](Cc2ccc(O)cc2)NC(=O)[C@H](Cc2ccc(O)cc2)NC(=O)[C@H](CC(N)=O)NC(=O)[C@H](Cc2c[nH]c3ccccc23)N(C)C(=O)[C@H](C(C)C)NC(=O)[C@H](Cc2ccc(F)cc2)N(C)C(=O)[C@H](C(C)C)NC(=O)[C@H](C)NC(=O)CSC[C@@H](C(=O)NCCOCCOCCOCCOCCC(N)=O)NC(=O)[C@H](Cc2ccc(O)cc2)N(C)C(=O)[C@H](Cc2ccccc2)NC(=O)[C@@H](CCCNC(=N)N)NC(=O)[C@H](CCCNC(=N)N)NC(=O)[C@H]([C@@H](C)CC)NC1=O [compound 28]
2 | 1 to 100 nM | CC[C@H](C)[C@@H]1NC(=O)[C@H](Cc2ccc(OC)cc2)NC(=O)[C@H](Cc2ccc(O)cc2)NC(=O)[C@H](CC(N)=O)NC(=O)[C@H](Cc2c[nH]c3ccccc23)N(C)C(=O)[C@H](C(C)C)NC(=O)[C@H](Cc2ccc(F)cc2)N(C)C(=O)[C@H](C(C)C)NC(=O)[C@H](C)NC(=O)CSC[C@@H](C(=O)NCCOCCOCCOCCOCCC(N)=O)NC(=O)[C@H](Cc2ccc(O)cc2)N(C)C(=O)[C@H](Cc2ccccc2)NC(=O)[C@@H](CCCNC(=N)N)NC(=O)[C@H](CCCNC(=N)N)NC(=O)[C@H]([C@@H](C)CC)NC1=O [compound 29]
3 | 1 to 100 nM | CC[C@H](C)[C@@H]1NC(=O)[C@H](Cc2ccc(OC)cc2)NC(=O)[C@H](Cc2ccc(O)cc2)NC(=O)[C@H](CC(N)=O)NC(=O)[C@H](Cc2c[nH]c3ccccc23)N(C)C(=O)[C@H](C(C)C)NC(=O)[C@H](Cc2ccc(F)cc2)N(C)C(=O)[C@H](C(C)C)NC(=O)[C@H](C)NC(=O)CSC[C@@H](C(=O)NCCOCCOCCOCCOCCC(N)=O)NC(=O)[C@H](Cc2ccc(O)cc2)N(C)C(=O)[C@H](Cc2ccccc2)NC(=O)[C@@H](CCCNC(=N)N)NC(=O)[C@H](CCCNC(=N)N)N(C)C(=O)[C@H]([C@@H](C)CC)NC1=O [compound 30]
4 | < 1 nM | CC[C@H](C)[C@@H]1NC(=O)[C@H](Cc2ccc(OC)cc2)NC(=O)[C@H](Cc2ccc(O)cc2)NC(=O)[C@H](CC(N)=O)NC(=O)[C@H](Cc2c[nH]c3ccc(Cl)cc23)NC(=O)[C@H](C(C)C)NC(=O)[C@H](Cc2ccccc2)N(C)C(=O)[C@H](C(C)C)NC(=O)[C@H](C)NC(=O)CSC[C@@H](C(=O)NCCOCCOCCOCCOCCC(N)=O)NC(=O)[C@H](Cc2ccc(O)cc2)N(C)C(=O)[C@H](Cc2ccc(O)cc2)NC(=O)[C@H](CCCNC(=N)N)NC(=O)[C@H](CCCNC(=N)N)NC(=O)[C@H]([C@@H](C)CC)NC1=O [compound 37]
5 | < 1 nM | CC[C@H](C)[C@@H]1NC(=O)[C@H](Cc2ccc(OC)cc2)NC(=O)[C@H](Cc2ccc(O)cc2)NC(=O)[C@H](CC(N)=O)NC(=O)[C@H](Cc2c[nH]c3ccccc23)NC(=O)[C@H](C(C)C)NC(=O)[C@H](Cc2cccc(Cl)c2)N(C)C(=O)[C@H](C(C)C)NC(=O)[C@H](C)NC(=O)CSC[C@@H](C(=O)NCCOCCOCCOCCOCCC(N)=O)NC(=O)[C@H](Cc2ccc(O)cc2)N(C)C(=O)[C@H](Cc2ccc(O)cc2)NC(=O)[C@H](CCCNC(=N)N)NC(=O)[C@H](CCCNC(=N)N)NC(=O)[C@H]([C@@H](C)CC)NC1=O [compound 38]
6 | 1 to 100 nM | CC[C@H](C)[C@@H]1NC(=O)[C@H](Cc2ccc(OCC(=O)O)cc2)NC(=O)[C@H](Cc2ccc(O)cc2)NC(=O)[C@H](CC(N)=O)NC(=O)[C@H](Cc2c[nH]c3ccccc23)NC(=O)[C@H](C(C)C)NC(=O)[C@H](Cc2ccccc2)N(C)C(=O)[C@H](C(C)C)NC(=O)[C@H](C)NC(=O)CSC[C@@H](C(=O)NCCOCCOCCOCCOCCC(N)=O)NC(=O)[C@H](Cc2ccc(O)cc2)N(C)C(=O)[C@H](Cc2ccc(O)cc2)NC(=O)[C@H](CCCNC(=N)N)NC(=O)[C@H](CCCNC(=N)N)NC(=O)[C@H]([C@@H](C)CC)NC1=O [compound 45]
7 | 1 to 100 nM | CC[C@H](C)[C@@H]1NC(=O)[C@H](Cc2ccc(OCC(=O)O)cc2)NC(=O)[C@H](Cc2ccc(O)cc2)NC(=O)[C@H](CC(N)=O)NC(=O)[C@H](Cc2cn(CC(=O)O)c3ccccc23)NC(=O)[C@H](C(C)C)NC(=O)[C@H](Cc2ccccc2)N(C)C(=O)[C@H](C(C)C)NC(=O)[C@H](C)NC(=O)CSC[C@@H](C(=O)NCCOCCOCCOCCOCCC(N)=O)NC(=O)[C@H](Cc2ccc(O)cc2)N(C)C(=O)[C@H](Cc2ccc(O)cc2)NC(=O)[C@H](CCCNC(=N)N)NC(=O)[C@H](CCCNC(=N)N)NC(=O)[C@H]([C@@H](C)CC)NC1=O [compound 46]

Second part, the molecule before the results:

Row | SMILES | Kd
8 | CC[C@H](C)[C@@H]1NC(=O)[C@H](Cc2ccc(OC)cc2)NC(=O)[C@H](Cc2ccc(O)cc2)NC(=O)[C@H](CC(N)=O)NC(=O)[C@H](Cc2cn(CC(=O)O)c3ccccc23)NC(=O)[C@H](C(C)C)NC(=O)[C@H](Cc2cccc(Cl)c2)N(C)C(=O)[C@H](C(C)C)NC(=O)[C@H](C)NC(=O)CSC[C@@H](C(=O)NCC(=O)N[C@H](CCC(=O)O)C(=O)N[C@H](CCC(=O)O)C(=O)N[C@H](CCC(=O)O)C(=O)N[C@H](CO)C(=O)N[C@H](CO)C(=O)N[C@@H](CCCCN=[N+]=[N-])C(N)=O)NC(=O)[C@H](Cc2ccc(O)cc2)N(C)C(=O)[C@H](Cc2ccccc2)NC(=O)[C@H](CCCNC(=N)N)NC(=O)[C@H](CCCNC(=N)N)NC(=O)[C@H](CCC(=O)O)NC1=O [compound 39] | < 1 nM
9 | CC[C@H](C)[C@@H]1NC(=O)[C@H](Cc2ccc(OCC(=O)O)cc2)NC(=O)[C@H](Cc2ccc(O)cc2)NC(=O)[C@H](CC(N)=O)NC(=O)[C@H](Cc2cn(CC(=O)O)c3ccccc23)NC(=O)[C@H](C(C)C)NC(=O)[C@H](Cc2cccc(Cl)c2)N(C)C(=O)[C@H](C(C)C)NC(=O)[C@H](C)NC(=O)CSC[C@@H](C(=O)NCC(=O)N[C@H](CCC(=O)O)C(=O)N[C@H](CCC(=O)O)C(=O)N[C@H](CCC(=O)O)C(=O)N[C@H](CO)C(=O)N[C@H](CO)C(=O)N[C@@H](CCCCN=[N+]=[N-])C(N)=O)NC(=O)[C@H](Cc2ccc(O)cc2)N(C)C(=O)[C@H](Cc2ccccc2)NC(=O)[C@H](CCCNC(=N)N)NC(=O)[C@H](CCCNC(=N)N)NC(=O)[C@H]([C@@H](C)CC)NC1=O [compound 40] | < 1 nM
10 | CC[C@H](C)[C@@H]1NC(=O)[C@H](Cc2ccc(OCC(=O)O)cc2)NC(=O)[C@H](Cc2ccc(O)cc2)NC(=O)[C@H](CC(N)=O)NC(=O)[C@H](Cc2c[nH]c3ccccc23)NC(=O)[C@H](C(C)C)NC(=O)[C@H](Cc2ccccc2)N(C)C(=O)[C@H](C(C)C)NC(=O)[C@H](C)NC(=O)CSC[C@@H](C(=O)NCC(=O)N[C@H](CCC(=O)O)C(=O)N[C@H](CCC(=O)O)C(=O)N[C@H](CCC(=O)O)C(=O)N[C@H](CO)C(=O)N[C@H](CO)C(=O)N[C@@H](CCCCN=[N+]=[N-])C(N)=O)NC(=O)[C@H](Cc2ccc(O)cc2)N(C)C(=O)[C@H](Cc2ccc(O)cc2)NC(=O)[C@H](CCCNC(=N)N)NC(=O)[C@H](CCCNC(=N)N)NC(=O)[C@H]([C@@H](C)CC)NC1=O [compound 41] | 1 to 100 nM
11 | CC[C@H](C)[C@@H]1NC(=O)[C@H](Cc2ccc(OCC(=O)O)cc2)NC(=O)[C@H](Cc2ccc(O)cc2)NC(=O)[C@H](CC(N)=O)NC(=O)[C@H](Cc2cn(CC(=O)O)c3ccccc23)NC(=O)[C@H](C(C)C)NC(=O)[C@H](Cc2ccccc2)N(C)C(=O)[C@H](C(C)C)NC(=O)[C@H](C)NC(=O)CSC[C@@H](C(=O)NCC(=O)N[C@H](CCC(=O)O)C(=O)N[C@H](CCC(=O)O)C(=O)N[C@H](CCC(=O)O)C(=O)N[C@H](CO)C(=O)N[C@H](CO)C(=O)N[C@@H](CCCCN=[N+]=[N-])C(N)=O)NC(=O)[C@H](Cc2ccc(O)cc2)N(C)C(=O)[C@H](Cc2ccc(O)cc2)NC(=O)[C@H](CCCNC(=N)N)NC(=O)[C@H](CCCNC(=N)N)NC(=O)[C@H]([C@@H](C)CC)NC1=O [compound 42] | 1 to 100 nM
12 | CC[C@H](C)[C@@H]1NC(=O)[C@H](Cc2ccc(OC)cc2)NC(=O)[C@H](Cc2ccc(O)cc2)NC(=O)[C@H](CC(N)=O)NC(=O)[C@H](Cc2cn(CC(=O)O)c3ccccc23)NC(=O)[C@H](C(C)C)NC(=O)[C@H](Cc2cccc(Cl)c2)N(C)C(=O)[C@H](C(C)C)NC(=O)[C@H](C)NC(=O)CSC[C@@H](C(=O)NCCOCCOCCOCCOCCC(N)=O)NC(=O)[C@H](Cc2ccc(O)cc2)N(C)C(=O)[C@H](Cc2ccccc2)NC(=O)[C@H](CCCNC(=N)N)NC(=O)[C@H](CCCNC(=N)N)NC(=O)[C@H](CCC(=O)O)NC1=O [compound 43] | 1 to 100 nM
13 | CC[C@H](C)[C@@H]1NC(=O)[C@H](Cc2ccc(OCC(=O)O)cc2)NC(=O)[C@H](Cc2ccc(O)cc2)NC(=O)[C@H](CC(N)=O)NC(=O)[C@H](Cc2cn(CC(=O)O)c3ccccc23)NC(=O)[C@H](C(C)C)NC(=O)[C@H](Cc2cccc(Cl)c2)N(C)C(=O)[C@H](C(C)C)NC(=O)[C@H](C)NC(=O)CSC[C@@H](C(=O)NCCOCCOCCOCCOCCC(N)=O)NC(=O)[C@H](Cc2ccc(O)cc2)N(C)C(=O)[C@H](Cc2ccccc2)NC(=O)[C@H](CCCNC(=N)N)NC(=O)[C@H](CCCNC(=N)N)NC(=O)[C@H]([C@@H](C)CC)NC1=O [compound 44] | 1 to 100 nM
14 | CC[C@H](C)[C@@H]1NC(=O)[C@H](Cc2ccc(OCC(=O)O)cc2)NC(=O)[C@H](Cc2ccc(O)cc2)NC(=O)[C@H](CC(N)=O)NC(=O)[C@H](Cc2cn(CC(=O)O)c3ccccc23)NC(=O)[C@H](C(C)C)NC(=O)[C@H](Cc2cccc(Cl)c2)N(C)C(=O)[C@H](C(C)C)NC(=O)[C@H](C)NC(=O)CSC[C@@H](C(=O)NCC(=O)NCCOCCOCCOCCOCCOCCOCCOCCOCCC(=O)N[C@@H](CCCCN=[N+]=[N-])C(N)=O)NC(=O)[C@H](Cc2ccc(O)cc2)N(C)C(=O)[C@H](Cc2ccccc2)NC(=O)[C@H](CCCNC(=N)N)NC(=O)[C@H](CCCNC(=N)N)NC(=O)[C@H]([C@@H](C)CC)NC1=O [compound 47] | 1 to 100 nM
15 | CC[C@H](C)[C@@H]1NC(=O)[C@H](Cc2cccnc2)NC(=O)[C@H](Cc2ccc(O)cc2)NC(=O)[C@H](CC(N)=O)NC(=O)[C@H](Cc2cn(CC(=O)O)c3ccccc23)NC(=O)[C@H](C(C)C)NC(=O)[C@H](Cc2cccc(Cl)c2)N(C)C(=O)[C@H](C(C)C)NC(=O)[C@H](C)NC(=O)CSC[C@@H](C(=O)NCCOCCOCCOCCOCCC(N)=O)NC(=O)[C@H](Cc2ccc(O)cc2)N(C)C(=O)[C@H](Cc2ccncc2)NC(=O)[C@H](CCCNC(=N)N)NC(=O)[C@H](CCCNC(=N)N)NC(=O)[C@H]([C@@H](C)CC)NC1=O [compound 48] ({CH2CO}-AV[NMePhe(3-Cl)]V[Trp(1-CH2COOH)]NY[3Pal]IIRR[4Pal][NMeY]C[PEG4]-NH2; thioether N-15) | 1 to 100 nM
